Experimental data as given in patent publication US9249129B2, “Morpholino substituted urea derivatives as mTOR inhibitors” (CELLZOME LIMITED, priority 2010, dated 2016).
Like-named read-outs stand apart in the source and are kept apart here.

Experiments:
PI3Kβ = biological target: T1, PI3Kβ (Homo sapiens, UniProt P42338); assay: kinobeads assay, PI3K beta (dot blot detection); assay type: binding; details: Table 4, read-out: Inhibition values (IC50) PI3Kb
T1 construct: endogenous in cells; host or cells: Jurkat cells (ATCC TIB-152) lysate, the only lysate described
T1 sequence (P42338 whole entry): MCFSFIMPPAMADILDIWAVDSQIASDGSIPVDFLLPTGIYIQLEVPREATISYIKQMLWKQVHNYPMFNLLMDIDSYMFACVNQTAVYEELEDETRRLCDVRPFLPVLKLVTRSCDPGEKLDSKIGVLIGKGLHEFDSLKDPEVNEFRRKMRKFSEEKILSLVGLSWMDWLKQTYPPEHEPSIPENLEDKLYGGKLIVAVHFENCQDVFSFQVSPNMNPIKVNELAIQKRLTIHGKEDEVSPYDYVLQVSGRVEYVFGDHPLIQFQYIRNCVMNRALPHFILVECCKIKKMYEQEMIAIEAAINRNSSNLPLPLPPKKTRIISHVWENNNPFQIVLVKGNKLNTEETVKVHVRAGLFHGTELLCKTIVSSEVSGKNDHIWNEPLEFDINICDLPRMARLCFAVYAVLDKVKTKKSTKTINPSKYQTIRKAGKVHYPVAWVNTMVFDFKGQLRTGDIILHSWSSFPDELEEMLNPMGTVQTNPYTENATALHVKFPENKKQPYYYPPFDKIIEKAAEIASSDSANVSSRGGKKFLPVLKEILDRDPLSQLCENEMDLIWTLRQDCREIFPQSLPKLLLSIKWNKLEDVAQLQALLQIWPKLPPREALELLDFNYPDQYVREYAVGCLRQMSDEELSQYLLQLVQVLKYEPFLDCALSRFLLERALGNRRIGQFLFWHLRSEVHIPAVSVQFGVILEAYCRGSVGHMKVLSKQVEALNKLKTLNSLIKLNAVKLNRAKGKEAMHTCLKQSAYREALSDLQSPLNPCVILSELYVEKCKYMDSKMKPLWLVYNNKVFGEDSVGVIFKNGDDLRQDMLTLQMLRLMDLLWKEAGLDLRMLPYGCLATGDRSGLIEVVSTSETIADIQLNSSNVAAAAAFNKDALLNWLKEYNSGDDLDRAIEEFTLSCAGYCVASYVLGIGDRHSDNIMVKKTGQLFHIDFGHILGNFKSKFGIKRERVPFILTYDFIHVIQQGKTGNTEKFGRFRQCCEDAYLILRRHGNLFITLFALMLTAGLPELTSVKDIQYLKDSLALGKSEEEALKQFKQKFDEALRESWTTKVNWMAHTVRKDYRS
T1 sequence (P27986 whole entry partner): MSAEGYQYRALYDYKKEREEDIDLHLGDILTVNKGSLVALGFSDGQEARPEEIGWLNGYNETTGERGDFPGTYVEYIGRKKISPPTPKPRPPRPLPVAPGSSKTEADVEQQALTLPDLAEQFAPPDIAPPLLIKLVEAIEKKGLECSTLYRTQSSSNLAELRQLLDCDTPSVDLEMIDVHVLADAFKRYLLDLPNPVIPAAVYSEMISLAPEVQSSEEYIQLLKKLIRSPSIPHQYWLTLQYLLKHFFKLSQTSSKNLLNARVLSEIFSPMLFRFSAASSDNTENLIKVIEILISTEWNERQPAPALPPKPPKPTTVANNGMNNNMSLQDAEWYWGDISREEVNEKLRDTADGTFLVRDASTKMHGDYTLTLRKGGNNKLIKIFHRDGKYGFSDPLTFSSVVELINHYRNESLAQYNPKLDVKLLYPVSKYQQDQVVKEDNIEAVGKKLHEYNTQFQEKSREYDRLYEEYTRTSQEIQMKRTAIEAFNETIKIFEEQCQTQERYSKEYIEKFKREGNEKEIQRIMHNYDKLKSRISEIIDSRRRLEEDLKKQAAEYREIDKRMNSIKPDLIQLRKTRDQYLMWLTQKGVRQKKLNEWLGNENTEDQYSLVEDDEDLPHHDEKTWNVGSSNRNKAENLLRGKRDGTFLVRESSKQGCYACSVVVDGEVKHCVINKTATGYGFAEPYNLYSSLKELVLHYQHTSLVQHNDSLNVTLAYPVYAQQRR

mTOR = biological target: T2, mTOR (Homo sapiens, UniProt P42345); assay: mTOR kinobeads assay (dot blot detection); assay type: binding
T2 construct: endogenous in cells; host or cells: Jurkat cells (ATCC TIB-152, clone E6-1), lysate
In short: (§1)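 Jurkat cell lysate (5 mg/mL protein) incubated 2 h in the cold with test compound (9-step 1:3 series) and immobilized phenylthiazole/phenylmorpholin-chromen ligand beads. Bead-bound kinases eluted, detected by specific antibody dot blot with infrared readout; IC50 from dose-response curves.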

PI3Kγ = biological target: T3, PI3Kγ (Homo sapiens, UniProt P48736); assay: kinobeads assay, PI3K gamma (dot blot detection); assay type: binding; details: Table 4, read-out: Inhibition values (IC50) PI3Kg
T3 construct: endogenous in cells; host or cells: Jurkat cells (ATCC TIB-152) lysate, the only lysate described
T3 sequence (P48736 whole entry): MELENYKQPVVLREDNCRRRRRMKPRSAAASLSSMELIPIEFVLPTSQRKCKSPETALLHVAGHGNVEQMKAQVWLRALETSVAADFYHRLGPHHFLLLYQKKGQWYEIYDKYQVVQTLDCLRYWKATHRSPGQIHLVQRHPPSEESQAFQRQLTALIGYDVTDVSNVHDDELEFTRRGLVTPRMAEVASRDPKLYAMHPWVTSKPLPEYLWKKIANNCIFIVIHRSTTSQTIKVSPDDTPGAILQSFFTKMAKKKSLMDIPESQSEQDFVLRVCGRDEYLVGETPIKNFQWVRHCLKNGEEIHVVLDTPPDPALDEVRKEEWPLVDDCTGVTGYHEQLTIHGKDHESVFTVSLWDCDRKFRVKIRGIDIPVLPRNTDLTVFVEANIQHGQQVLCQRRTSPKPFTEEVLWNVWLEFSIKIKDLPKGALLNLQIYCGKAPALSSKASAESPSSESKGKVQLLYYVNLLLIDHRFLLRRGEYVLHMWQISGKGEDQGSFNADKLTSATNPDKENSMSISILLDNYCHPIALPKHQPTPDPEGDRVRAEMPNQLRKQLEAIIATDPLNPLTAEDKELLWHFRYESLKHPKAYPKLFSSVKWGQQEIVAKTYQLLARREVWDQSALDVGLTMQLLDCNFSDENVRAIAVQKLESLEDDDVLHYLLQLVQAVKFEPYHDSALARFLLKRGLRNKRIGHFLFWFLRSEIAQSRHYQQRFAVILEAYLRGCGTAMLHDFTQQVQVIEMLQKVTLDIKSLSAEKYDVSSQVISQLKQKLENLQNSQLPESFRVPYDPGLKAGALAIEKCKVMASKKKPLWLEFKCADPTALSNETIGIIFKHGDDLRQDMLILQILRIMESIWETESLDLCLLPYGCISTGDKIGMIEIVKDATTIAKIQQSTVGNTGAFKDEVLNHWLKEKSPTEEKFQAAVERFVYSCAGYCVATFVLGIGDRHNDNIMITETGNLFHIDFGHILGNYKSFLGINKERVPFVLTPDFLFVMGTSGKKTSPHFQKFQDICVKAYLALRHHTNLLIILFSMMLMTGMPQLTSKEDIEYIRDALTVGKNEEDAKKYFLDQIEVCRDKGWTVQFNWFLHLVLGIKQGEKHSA

[1] = biological target: T4, DNA-dependent protein kinase (DNA-PK) (Homo sapiens, UniProt P78527); assay: kinobeads assay, DNA-PK (dot blot detection); assay type: binding
T4 construct: endogenous in cells; host or cells: Jurkat cells (ATCC TIB-152, clone E6-1), lysate
In short: as §1

[2] = system: S6RP serine-240/244 phosphorylation in HEK293T/17 cells; assay: In vitro phospho-S6 cellular assay (pS6RP S240/244); assay type: cell-based; details: Homo sapiens, Table 6, 2 hours, S6RP Ser240/244, read-out: pS6 (phospho-S6 cell assay data, activity level)
In short: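 HEK293T/17 cells in DMEM with 2% FCS treated with 8 compound concentrations (0.1% DMSO) for 2 h at 37 °C, then lysed. Phospho-S6RP Ser240/244 or phospho-Akt Ser473 quantified by MesoScale sandwich immunoassay with Sulfo-Tag detection; IC50 from variable-slope sigmoidal fit.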

PI3K delta (PI3Kd) = biological target: T5, PI3K delta (PI3Kd) (Homo sapiens, UniProt O00329); assay: kinobeads assay, PI3K delta (dot blot detection); assay type: binding
T5 construct: endogenous in cells; host or cells: Jurkat cells (ATCC TIB-152, clone E6-1), lysate
T5 sequence (O00329 whole entry): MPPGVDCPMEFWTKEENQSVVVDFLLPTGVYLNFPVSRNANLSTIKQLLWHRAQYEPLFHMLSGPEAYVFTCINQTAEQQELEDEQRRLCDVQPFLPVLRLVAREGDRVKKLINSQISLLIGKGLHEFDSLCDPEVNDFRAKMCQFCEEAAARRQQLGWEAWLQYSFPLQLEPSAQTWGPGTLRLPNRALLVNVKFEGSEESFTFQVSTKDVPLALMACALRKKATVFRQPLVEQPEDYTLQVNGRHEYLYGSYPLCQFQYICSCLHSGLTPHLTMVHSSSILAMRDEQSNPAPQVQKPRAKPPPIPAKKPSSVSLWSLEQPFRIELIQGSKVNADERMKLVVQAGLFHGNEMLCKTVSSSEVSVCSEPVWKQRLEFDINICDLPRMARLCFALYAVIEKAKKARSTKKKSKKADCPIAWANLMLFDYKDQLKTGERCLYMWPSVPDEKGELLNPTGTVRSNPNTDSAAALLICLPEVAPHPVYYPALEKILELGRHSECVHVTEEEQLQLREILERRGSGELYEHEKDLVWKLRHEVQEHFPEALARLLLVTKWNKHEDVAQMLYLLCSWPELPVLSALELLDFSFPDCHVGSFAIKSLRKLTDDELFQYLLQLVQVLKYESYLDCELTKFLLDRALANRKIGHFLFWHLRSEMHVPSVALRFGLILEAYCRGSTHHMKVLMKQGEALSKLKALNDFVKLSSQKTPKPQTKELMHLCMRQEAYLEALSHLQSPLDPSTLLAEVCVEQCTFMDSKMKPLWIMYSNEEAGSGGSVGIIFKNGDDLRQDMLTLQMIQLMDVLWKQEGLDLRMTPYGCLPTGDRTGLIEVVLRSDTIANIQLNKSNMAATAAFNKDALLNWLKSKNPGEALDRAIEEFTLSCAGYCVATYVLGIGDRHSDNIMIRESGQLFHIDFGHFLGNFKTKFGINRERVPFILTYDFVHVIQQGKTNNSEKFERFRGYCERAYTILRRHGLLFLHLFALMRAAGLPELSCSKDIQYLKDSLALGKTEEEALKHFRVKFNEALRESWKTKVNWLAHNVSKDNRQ
T5 sequence (P27986 whole entry partner): as the sequence (P27986 whole entry partner) above
In short: as §1

PI3Kα = biological target: T6, PI3Kα (Homo sapiens, UniProt P42336); assay: kinobeads assay, PI3K alpha (dot blot detection); assay type: binding; details: Table 4, read-out: Inhibition values (IC50) PI3Ka
T6 construct: endogenous in cells; host or cells: Jurkat cells (ATCC TIB-152) lysate, the only lysate described
T6 sequence (P42336 whole entry): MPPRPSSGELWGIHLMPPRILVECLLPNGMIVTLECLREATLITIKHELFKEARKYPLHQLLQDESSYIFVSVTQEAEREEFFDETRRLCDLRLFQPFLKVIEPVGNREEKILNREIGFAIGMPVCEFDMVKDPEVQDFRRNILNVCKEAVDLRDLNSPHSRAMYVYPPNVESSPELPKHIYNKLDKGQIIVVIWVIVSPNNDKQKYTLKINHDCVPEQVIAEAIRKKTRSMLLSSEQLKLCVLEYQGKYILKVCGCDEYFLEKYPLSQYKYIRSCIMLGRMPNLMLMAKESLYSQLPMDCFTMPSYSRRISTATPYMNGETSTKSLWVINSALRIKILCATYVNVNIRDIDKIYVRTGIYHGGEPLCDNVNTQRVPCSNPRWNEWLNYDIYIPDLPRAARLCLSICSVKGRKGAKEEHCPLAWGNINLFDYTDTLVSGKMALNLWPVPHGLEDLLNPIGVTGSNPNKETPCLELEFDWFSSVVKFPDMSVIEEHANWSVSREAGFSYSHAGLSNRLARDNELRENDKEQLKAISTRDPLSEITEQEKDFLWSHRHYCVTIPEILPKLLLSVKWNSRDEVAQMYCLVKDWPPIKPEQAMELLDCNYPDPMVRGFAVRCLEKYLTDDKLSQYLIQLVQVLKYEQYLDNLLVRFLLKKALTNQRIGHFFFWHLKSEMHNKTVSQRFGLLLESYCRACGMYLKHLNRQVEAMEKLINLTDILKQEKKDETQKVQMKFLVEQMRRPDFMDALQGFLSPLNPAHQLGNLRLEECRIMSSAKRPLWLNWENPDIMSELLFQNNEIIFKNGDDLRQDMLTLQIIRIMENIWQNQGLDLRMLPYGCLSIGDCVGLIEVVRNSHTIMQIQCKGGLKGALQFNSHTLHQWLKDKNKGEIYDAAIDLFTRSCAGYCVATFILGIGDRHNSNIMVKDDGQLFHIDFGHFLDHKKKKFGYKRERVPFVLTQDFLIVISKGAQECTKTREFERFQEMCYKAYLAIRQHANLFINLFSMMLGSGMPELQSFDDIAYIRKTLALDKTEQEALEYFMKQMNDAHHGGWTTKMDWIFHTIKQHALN
T6 sequence (P27986 whole entry partner): as the sequence (P27986 whole entry partner) above

[3] = Table 2, Jurkat cell lysate, read-out: Inhibition values (IC50) mTor
[4] = Table 4, read-out: Inhibition values (IC50) mTOR
[5] = Table 2, Jurkat cell lysate, read-out: Inhibition values (IC50) DNAPK
[6] = Table 4, read-out: Inhibition values (IC50) DNAPK
[7] = Table 2, Jurkat cell lysate, read-out: Inhibition values (IC50) PI3Kd
[8] = Table 4, read-out: Inhibition values (IC50) PI3Kd

Row | Compound | IC50 (PI3Kβ) | IC50 (mTOR; [3]) | IC50 (mTOR; [4]) | IC50 (PI3Kγ) | IC50 [1, 5] | IC50 [1, 6] | IC50 (PI3K delta (PI3Kd); [7]) | IC50 (PI3K delta (PI3Kd); [8]) | IC50 (PI3Kα) | IC50 [2]
1 | O=C(Nc1ccc(-c2nccc(N3CCOCC3)n2)cc1)NC1CC1 [Example 26, 1-cyclopropyl-3-(4-(4-morpholinopyrimidin-2-yl)phenyl)urea] | 1 to 10 µM | 0.1 to 1 µM | 0.1 to 1 µM | ≥ 10 µM | 1 to 10 µM | 1 to 10 µM | ≥ 10 µM | ≥ 10 µM | ≥ 10 µM | 0.1 to 1 µM
2 | CCNC(=O)Nc1ccc(-c2ccnc(N3CCOCC3)n2)cc1 [Example 29, 1-ethyl-3-(4-(2-morpholinopyrimidin-4-yl)phenyl)urea] | 1 to 10 µM | 1 to 10 µM | 0.1 to 1 µM | ≥ 10 µM | 1 to 10 µM | 1 to 10 µM | ≥ 10 µM | ≥ 10 µM | 1 to 10 µM | 0.1 to 1 µM
3 | C[C@H]1COCCN1c1cc(-c2cccnc2)nc(-c2ccc(NC(=O)NC3CC3)cc2)n1 [Example 3, (S)-1-cyclopropyl-3-(4-(4-(3-methylmorpholino)-6-(pyridin-3-yl)pyrimidin-2-yl)phenyl)urea] | ≥ 10 µM | 0.1 to 1 µM | 0.1 to 1 µM | ≥ 10 µM | ≥ 10 µM | ≥ 10 µM | ≥ 10 µM | ≥ 10 µM | ≥ 10 µM | < 0.1 µM
4 | CCNC(=O)Nc1ccc(-c2cc(-c3cncc(S(C)(=O)=O)c3)nc(N3CCOC[C@@H]3C)n2)cc1 [Example 15, (S)-1-ethyl-3-(4-(2-(3-methylmorpholino)-6-(5-(methylsulfonyl)pyridin-3-yl)pyrimidin-4-yl)phenyl)urea] | ≥ 10 µM | 1 to 10 µM | 1 to 10 µM | ≥ 10 µM | ≥ 10 µM | ≥ 10 µM | ≥ 10 µM | ≥ 10 µM | ≥ 10 µM | 0.1 to 1 µM
5 | CNC(=O)Nc1ccc(-c2ccnc(N3CCOCC3)n2)cc1 [Example 30, 1-methyl-3-(4-(2-morpholinopyrimidin-4-yl)phenyl)urea] | 1 to 10 µM | 1 to 10 µM | 1 to 10 µM | ≥ 10 µM | 1 to 10 µM | 1 to 10 µM | 1 to 10 µM | 1 to 10 µM | 1 to 10 µM | 1 to 10 µM
6 | O=C(Nc1ccc(-c2ccnc(N3CCOCC3)n2)cc1)NC1CC1 [Example 28, 1-cyclopropyl-3-(4-(2-morpholinopyrimidin-4-yl)phenyl)urea] | ≥ 10 µM | 1 to 10 µM | 1 to 10 µM | ≥ 10 µM | ≥ 10 µM | ≥ 10 µM | ≥ 10 µM | ≥ 10 µM | ≥ 10 µM | 1 to 10 µM
7 | C[C@H]1COCCN1c1cc(-c2ccncc2F)nc(-c2ccc(NC(=O)NC3CC3)cc2)n1 [Example 24, (S)-1-cyclopropyl-3-(4-(4-(3-fluoropyridin-4-yl)-6-(3-methylmorpholino)pyrimidin-2-yl)phenyl)urea] | ≥ 10 µM | 0.1 to 1 µM | 0.1 to 1 µM | ≥ 10 µM | ≥ 10 µM | ≥ 10 µM | ≥ 10 µM | ≥ 10 µM | ≥ 10 µM | 0.1 to 1 µM

Continued, in another order:

Row | IC50 (PI3Kβ) | IC50 (mTOR; [3]) | IC50 (mTOR; [4]) | IC50 (PI3Kγ) | IC50 [1, 5] | IC50 [1, 6] | IC50 (PI3K delta (PI3Kd); [7]) | IC50 (PI3K delta (PI3Kd); [8]) | IC50 (PI3Kα) | Compound | IC50 [2]
8 | ≥ 10 µM | 1 to 10 µM | 1 to 10 µM | ≥ 10 µM | ≥ 10 µM | ≥ 10 µM | ≥ 10 µM | ≥ 10 µM | ≥ 10 µM | CCNC(=O)Nc1ccc(-c2ccnc(N3CC4CCC(C3)O4)n2)cc1 [Example 56, 1-(4-(2-(8-oxa-3-azabicyclo[3.2.1]octan-3-yl)pyrimidin-4-yl)phenyl)-3-ethylurea] | 0.1 to 1 µM
9 | ≥ 10 µM | 0.1 to 1 µM | 0.1 to 1 µM | ≥ 10 µM | ≥ 10 µM | ≥ 10 µM | ≥ 10 µM | ≥ 10 µM | ≥ 10 µM | C[C@H]1COCCN1c1ccnc(-c2ccc(NC(=O)NC3CC3)cc2)n1 [Example 35, (S)-1-cyclopropyl-3-(4-(4-(3-methylmorpholino)pyrimidin-2-yl)phenyl)urea] | 0.1 to 1 µM
10 | ≥ 10 µM | – | 0.1 to 1 µM | ≥ 10 µM | – | ≥ 10 µM | – | ≥ 10 µM | ≥ 10 µM | CCS(=O)(=O)c1ccccc1-c1cc(-c2ccc(NC(=O)NC3CC3)cc2)nc(N2CCOC[C@@H]2C)n1 [Example 87, (S)-1-cyclopropyl-3-(4-(6-(2-(ethylsulfonyl)phenyl)-2-(3-methylmorpholino)pyrimidin-4-yl)phenyl)urea] | < 0.1 µM
11 | ≥ 10 µM | 0.1 to 1 µM | 0.1 to 1 µM | ≥ 10 µM | ≥ 10 µM | ≥ 10 µM | ≥ 10 µM | ≥ 10 µM | ≥ 10 µM | C[C@H]1COCCN1c1ccnc(-c2ccc(NC(=O)NCCF)cc2)n1 [Example 55, (S)-1-(2-fluoroethyl)-3-(4-(4-(3-methylmorpholino)pyrimidin-2-yl)phenyl)urea] | 0.1 to 1 µM
12 | ≥ 10 µM | 1 to 10 µM | 1 to 10 µM | ≥ 10 µM | ≥ 10 µM | ≥ 10 µM | ≥ 10 µM | ≥ 10 µM | ≥ 10 µM | C[C@H]1COCCN1c1nccc(-c2ccc(NC(=O)NC3CC3)cc2)n1 [Example 39, (S)-1-cyclopropyl-3-(4-(2-(3-methylmorpholino)pyrimidin-4-yl)phenyl)urea] | 0.1 to 1 µM
13 | ≥ 10 µM | 0.1 to 1 µM | 0.1 to 1 µM | ≥ 10 µM | 1 to 10 µM | 1 to 10 µM | ≥ 10 µM | ≥ 10 µM | ≥ 10 µM | O=C(NCC(F)F)Nc1ccc(-c2nccc(N3CC4CCC(C3)O4)n2)cc1 [Example 51, 1-(4-(4-(8-oxa-3-azabicyclo[3.2.1]octan-3-yl)pyrimidin-2-yl)phenyl)-3-(2,2-difluoroethyl)urea] | 0.1 to 1 µM
14 | ≥ 10 µM | 1 to 10 µM | 1 to 10 µM | ≥ 10 µM | ≥ 10 µM | ≥ 10 µM | ≥ 10 µM | ≥ 10 µM | ≥ 10 µM | C[C@H]1COCCN1c1cc(-c2cc(F)ccc2S(C)(=O)=O)nc(-c2ccc(NC(=O)NCCF)cc2F)n1 [Example 68, (S)-1-(3-fluoro-4-(4-(5-fluoro-2-(methylsulfonyl)phenyl)-6-(3-methylmorpholino)pyrimidin-2-yl)phenyl)-3-(2-fluoroethyl)urea] | 0.1 to 1 µM
15 | ≥ 10 µM | – | 0.1 to 1 µM | ≥ 10 µM | – | ≥ 10 µM | – | ≥ 10 µM | ≥ 10 µM | C[C@H]1COCCN1c1nc(-c2ccc(NC(=O)NCCN)cc2)cc(-c2cc(F)ccc2S(C)(=O)=O)n1 [Example 84, (S)-1-(2-aminoethyl)-3-(4-(6-(5-fluoro-2-(methylsulfonyl)phenyl)-2-(3-methylmorpholino)pyrimidin-4-yl)phenyl)urea] | 1 to 10 µM
16 | ≥ 10 µM | 0.1 to 1 µM | 0.1 to 1 µM | ≥ 10 µM | ≥ 10 µM | ≥ 10 µM | ≥ 10 µM | ≥ 10 µM | 1 to 10 µM | C[C@H]1COCCN1c1ccnc(-c2ccc(NC(=O)NCCO)cc2)n1 [Example 53, (S)-1-(2-hydroxyethyl)-3-(4-(4-(3-methylmorpholino)pyrimidin-2-yl)phenyl)urea] | 0.1 to 1 µM
17 | ≥ 10 µM | 1 to 10 µM | 1 to 10 µM | ≥ 10 µM | ≥ 10 µM | ≥ 10 µM | ≥ 10 µM | ≥ 10 µM | ≥ 10 µM | CCNC(=O)Nc1ccc(-c2ccnc(N3CCOC[C@@H]3C)n2)cc1 [Example 38, (S)-1-ethyl-3-(4-(2-(3-methylmorpholino)pyrimidin-4-yl)phenyl)urea] | 0.1 to 1 µM
18 | ≥ 10 µM | – | 0.1 to 1 µM | ≥ 10 µM | – | ≥ 10 µM | – | ≥ 10 µM | ≥ 10 µM | CS(=O)(=O)c1ccc(F)cc1-c1cc(-c2ccc(NC(=O)NC3CC3)cc2)nc(N2CC3CCC(C2)O3)n1 [Example 81, 1-(4-(2-(8-oxa-3-azabicyclo[3.2.1]octan-3-yl)-6-(5-fluoro-2-(methylsulfonyl)phenyl)pyrimidin-4-yl)phenyl)-3-cyclopropylurea] | < 0.1 µM
